The values that follow come from US20240246946A1, “MODULATORS OF TREX1” (Constellation Pharmaceuticals, Inc., priority 2021, published 2024).

pIC50: −log10 of the molar value.

One assay addresses T1, full length human TREX1 (Homo sapiens, UniProt Q9NSU2).
T1 construct: N-terminally His-Tev tagged full length human TREX1; made in house; host or cells: E. coli
T1 sequence (Q9NSU2 1-314): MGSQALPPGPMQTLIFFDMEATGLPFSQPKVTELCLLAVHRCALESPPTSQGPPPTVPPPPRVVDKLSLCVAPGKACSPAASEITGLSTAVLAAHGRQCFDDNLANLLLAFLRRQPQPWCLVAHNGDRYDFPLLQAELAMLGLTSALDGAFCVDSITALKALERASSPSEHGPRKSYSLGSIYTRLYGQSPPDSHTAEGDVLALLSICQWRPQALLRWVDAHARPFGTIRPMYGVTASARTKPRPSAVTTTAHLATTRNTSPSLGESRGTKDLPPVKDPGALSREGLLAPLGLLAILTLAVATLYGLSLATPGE
As to the kind of experiment: hTREX1 Biochemical Assay (fluorescence, dsDNA substrate degradation). The conditions noted are these: biochemical, read-out: hTREX1 IC50. A digest of the protocol:
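Fluorescence rises as enzyme degrades a quenched TEX615-labelled dsDNA substrate (60 nM) in 50 mM Tris, 150 mM NaCl, 5 mM MgCl2, pH 7.4. Full-length His-Tev-tagged human TREX1, 4 pM, sits with compound 4 hours at 25° C before substrate; reaction 18 hours, stopped with EDTA.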

The target of the next assay is T2, full length mouse TREX1 (Mus musculus, UniProt Q91XB0).
T2 construct: N-terminally His-Tev tagged full length mouse TREX1; made in house; host or cells: E. coli
T2 sequence (Q91XB0 1-314): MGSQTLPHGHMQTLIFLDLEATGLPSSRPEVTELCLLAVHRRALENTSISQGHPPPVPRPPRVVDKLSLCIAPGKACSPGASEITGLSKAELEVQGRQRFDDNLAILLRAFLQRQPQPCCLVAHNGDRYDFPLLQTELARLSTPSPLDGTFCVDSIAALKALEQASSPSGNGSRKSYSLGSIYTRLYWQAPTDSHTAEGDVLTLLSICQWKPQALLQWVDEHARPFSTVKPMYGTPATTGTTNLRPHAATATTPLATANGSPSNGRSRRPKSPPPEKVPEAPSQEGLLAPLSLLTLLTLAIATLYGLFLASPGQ
Nature of the assay: mTREX1 Biochemical Assay (fluorescence, dsDNA substrate degradation). The note with it: biochemical, read-out: mTREX1 IC50. A digest of the protocol: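 Reaction run 18 h at 25° C. with 60 nM TEX615/quencher-labelled dsDNA and 6 pM mouse TREX1 in Tris buffer (pH 7.4, 5 mM MgCl2, 1.0% DMSO), enzyme having sat 4 h with compound across 10 concentrations. EDTA quench; substrate degradation measured as fluorescence increase.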

Assay [1] addresses T3, human TREX2 (residues M44-A279) (Homo sapiens, UniProt Q9BQ50).
T3 construct: human TREX2 (residues M44-A279, expressed in E. coli); made in house; host or cells: E. coli
T3 sequence (Q9BQ50 44-279 isoform Q9BQ50-1): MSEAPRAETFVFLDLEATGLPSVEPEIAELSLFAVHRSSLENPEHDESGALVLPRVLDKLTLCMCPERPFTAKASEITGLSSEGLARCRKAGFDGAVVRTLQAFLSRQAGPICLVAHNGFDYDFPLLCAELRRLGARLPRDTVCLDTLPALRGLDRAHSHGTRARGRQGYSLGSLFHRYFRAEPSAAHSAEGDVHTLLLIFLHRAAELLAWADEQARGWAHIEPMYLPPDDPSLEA
As to the kind of experiment: hTREX2 Biochemical Assay (fluorescence, dsDNA substrate degradation). The note with it: biochemical selectivity for hTREX1 vs hTREX2. A digest of the protocol: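 Fluorogenic dsDNA degradation read at 615 nm (570 nm excitation) after EDTA quench. Final 60 nM substrate, 50 pM His-Tev-tagged enzyme, 5 mM MgCl2, pH 7.4, 1.0% DMSO; 4 h compound–enzyme preincubation then 18 h reaction, both 25 °C; 10-point titration.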

As for `Cc1n[nH]c(C)c1C(c1ccccc1C#N)C(C)c1nc(C(=O)Nc2cnoc2)c(O)c(=O)n1C` (single isomer, unassigned) [Example 95 D2E2], the negative-log IC50 (pIC50) at full length human TREX1 and at full length mouse TREX1 was below 8.00 each time. The “hTREX1 vs hTREX2 selectivity” value in assay [1] was “A (A = <25 fold selective for hTREX1)”.
Turning to `CC(c1nc(C(=O)Nc2cnoc2)c(O)c(=O)n1C)C(c1ccccc1Cl)c1cnn(C)c1C#N` (single isomer, unassigned) [Example 96 D1E2], the pIC50 on full length human TREX1 and at full length mouse TREX1 was below 8.00 throughout. Moreover, the “hTREX1 vs hTREX2 selectivity” value in assay [1] was “A (A = <25 fold selective for hTREX1)”.
In the case of `CC(c1nc(C(=O)Nc2cnoc2)c(O)c(=O)n1C)C(c1ccccc1Cl)c1cnn(C)c1C#N` (single isomer, unassigned) [Example 96 D2E1], the pIC50 at full length human TREX1 and at full length mouse TREX1 was below 8.00 throughout. Moreover, the “hTREX1 vs hTREX2 selectivity” value in assay [1] was “A (A = <25 fold selective for hTREX1)”.
Consider `COCCn1cc(C(c2cc(F)ccc2Cl)C(C)c2nc(C(=O)Nc3cnoc3)c(O)c(=O)n2C)cn1` (single isomer, unassigned) [Example 97 D1E2], for which the pIC50 (commonly the IC50 on a negative log10 scale, so that one unit is a factor of ten) on full length human TREX1 is 8.00 to 9.00; at full length mouse TREX1 it was below 8.00. In addition, in assay [1], the “hTREX1 vs hTREX2 selectivity” value is on record as “A (A = <25 fold selective for hTREX1)”.
In the same order, the values of `CC(c1nc(C(=O)Nc2cnoc2)c(O)c(=O)n1C)C(c1cnn(CCOC(F)(F)F)c1)c1cc(F)ccc1Cl` (single isomer, unassigned) [Example 98 D1E2] are below 8.00, 8.00 to 9.00 and “A (A = <25 fold selective for hTREX1)”.
For `CC(c1nc(C(=O)Nc2cnoc2)c(O)c(=O)n1C)C(c1cnn(CC(C)(C)C#N)c1)c1cc(F)ccc1Cl` (single isomer, unassigned) [Example 99 D1E2], the pIC50 at full length human TREX1 and on full length mouse TREX1 was 8.00 to 9.00 each time. Besides, the “hTREX1 vs hTREX2 selectivity” value in assay [1] is “B (B = 25 to 50-fold selective for hTREX1)”.
In the case of `CC(c1nc(C(=O)Nc2cnoc2)c(O)c(=O)n1C)C(c1cnn(C(C)(C)CC#N)c1)c1cc(F)ccc1Cl` (single isomer, unassigned) [Example 100 D1E2], the negative-log IC50 (pIC50) on full length human TREX1 was 8.00 to 9.00; at full length mouse TREX1 it was below 8.00. For the same compound, the “hTREX1 vs hTREX2 selectivity” value in assay [1] is “A (A = <25 fold selective for hTREX1)”.
Turning to `CC(c1nc(C(=O)Nc2cnoc2)c(O)c(=O)n1C)C(c1cnn(CCOC(F)(F)F)c1)c1cc(F)ccc1C#N` (single isomer, unassigned) [Example 101 D1E1], the pIC50 at full length human TREX1 and on full length mouse TREX1 was below 8.00 each time. Moreover, in assay [1], the “hTREX1 vs hTREX2 selectivity” value is on record as “A (A = <25 fold selective for hTREX1)”.
For `CC(c1nc(C(=O)Nc2cnoc2)c(O)c(=O)n1C)C(c1cnn(CC(F)F)c1)c1cc(F)ccc1C#N` (single isomer, unassigned) [Example 102 D1E1], the pIC50 on full length human TREX1 and at full length mouse TREX1 was below 8.00 in each case. Besides, in assay [1], the “hTREX1 vs hTREX2 selectivity” value was “A (A = <25 fold selective for hTREX1)”.
As for `COCCn1cc(C(c2cc(F)ccc2C#N)C(C)c2nc(C(=O)Nc3cnoc3)c(O)c(=O)n2C)c(C)n1` (single isomer, unassigned) [Example 103 D2E2], the pIC50 on full length human TREX1 and at full length mouse TREX1 was below 8.00 in each case. Moreover, the “hTREX1 vs hTREX2 selectivity” value in assay [1] is reported as “A (A = <25 fold selective for hTREX1)”.
In the case of `COCCn1ncc(C(c2cc(F)ccc2C#N)C(C)c2nc(C(=O)Nc3cnoc3)c(O)c(=O)n2C)c1C` (single isomer, unassigned) [Example 104 D1E2], the pIC50 at full length human TREX1 and on full length mouse TREX1 was below 8.00 in each case. In addition, the “hTREX1 vs hTREX2 selectivity” value in assay [1] is “A (A = <25 fold selective for hTREX1)”.
In the case of `COCCn1ncc(C(c2cc(F)ccc2C#N)C(C)c2nc(C(=O)Nc3cnoc3)c(O)c(=O)n2C)c1C` (single isomer, unassigned) [Example 104 D2E1], the pIC50 on full length human TREX1 and on full length mouse TREX1 was below 8.00 in each case. Besides, the “hTREX1 vs hTREX2 selectivity” value in assay [1] is “A (A = <25 fold selective for hTREX1)”.
On to `COCCn1ncc(C(c2cc(F)ccc2C#N)C(C)c2nc(C(=O)Nc3cnoc3)c(O)c(=O)n2C)c1C` (single isomer, unassigned) [Example 104 D2E2], for which the pIC50 at full length human TREX1 was 8.00 to 9.00; at full length mouse TREX1 it was below 8.00. Besides, in assay [1], the “hTREX1 vs hTREX2 selectivity” value is on record as “B (B = 25 to 50-fold selective for hTREX1)”.
In the case of `CC(c1nc(C(=O)Nc2cnoc2)c(O)c(=O)n1C)C(c1cnn(C(C)C)c1)c1ccccc1C#N` (single isomer, unassigned) [Example 105 D1E1], the pIC50 on full length human TREX1 and on full length mouse TREX1 was below 8.00 each time. For the same compound, the “hTREX1 vs hTREX2 selectivity” value in assay [1] was “A (A = <25 fold selective for hTREX1)”.
In the case of `CC(c1nc(C(=O)Nc2cnoc2)c(O)c(=O)n1C)C(c1cnn(C(C)C)c1)c1ccccc1C#N` (single isomer, unassigned) [Example 105 D2E2], the pIC50 at full length human TREX1 and at full length mouse TREX1 was below 8.00 each time. Besides, in assay [1], the “hTREX1 vs hTREX2 selectivity” value is reported as “A (A = <25 fold selective for hTREX1)”.
For `CC(c1nc(C(=O)Nc2cnoc2)c(O)c(=O)n1C)C(c1cnn(C2COC2)c1)c1ccccc1C#N` (single isomer, unassigned) [Example 106 D1E2], the pIC50 on full length human TREX1 and on full length mouse TREX1 was below 8.00 throughout. Further, the “hTREX1 vs hTREX2 selectivity” value in assay [1] is “A (A = <25 fold selective for hTREX1)”.
Take `CC(c1nc(C(=O)Nc2cnoc2)c(O)c(=O)n1C)C(c1cnn(C2COC2)c1)c1ccccc1C#N` (single isomer, unassigned) [Example 106 D2E1]: the pIC50 on full length human TREX1 and at full length mouse TREX1 was below 8.00 throughout. The “hTREX1 vs hTREX2 selectivity” value in assay [1] is listed as “B (B = 25 to 50-fold selective for hTREX1)”.
For `COCCn1ncc(C(c2cc(F)ccc2Cl)C(C)c2nc(C(=O)Nc3cnoc3)c(O)c(=O)n2C)c1C` (single isomer, unassigned) [Example 108 D1E2], the pIC50 on full length human TREX1 and on full length mouse TREX1 was below 8.00 each time. Further, the “hTREX1 vs hTREX2 selectivity” value in assay [1] is on record as “A (A = <25 fold selective for hTREX1)”.
Consider `COCCn1ncc(C(c2cc(F)ccc2Cl)C(C)c2nc(C(=O)Nc3cnoc3)c(O)c(=O)n2C)c1C` (single isomer, unassigned) [Example 108 D2E2], for which the pIC50 at full length human TREX1 and at full length mouse TREX1 was below 8.00 throughout. In assay [1], the “hTREX1 vs hTREX2 selectivity” value is “A (A = <25 fold selective for hTREX1)”.
As for `Cc1nn(C)c(C)c1C(c1cc(F)ccc1C#N)C(C)c1nc(C(=O)Nc2cnoc2)c(O)c(=O)n1C` (single isomer, unassigned) [Example 109 D1E2], the negative logarithm of the IC50 (pIC50) at full length human TREX1 and on full length mouse TREX1 was below 8.00 each time. In assay [1], the “hTREX1 vs hTREX2 selectivity” value was “A (A = <25 fold selective for hTREX1)”.
Consider `COCCn1nc(C)c(C(c2cc(F)ccc2C#N)C(C)c2nc(C(=O)Nc3cnoc3)c(O)c(=O)n2C)c1C` (single isomer, unassigned) [Example 110 D1E2], for which the pIC50 at full length human TREX1 and on full length mouse TREX1 was below 8.00 in each case. Moreover, the “hTREX1 vs hTREX2 selectivity” value in assay [1] is “A (A = <25 fold selective for hTREX1)”.
For the compound `Cc1cc(C(c2cc(F)ccc2C#N)C(C)c2nc(C(=O)Nc3cnoc3)c(O)c(=O)n2C)n(C)n1` (single isomer, unassigned) [Example 111 D2E2], the pIC50 at full length human TREX1 and at full length mouse TREX1 was below 8.00 each time. Moreover, the “hTREX1 vs hTREX2 selectivity” value in assay [1] is “A (A = <25 fold selective for hTREX1)”.
